Source: patent US7759345B2, “Antitumoral derivatives of ET-743” (priority 2001, dated 2010)
Read-outs that look alike come from different tables or passages of the source.

What was measured:
K-562 = assay: Inhibition of cells growth by colorimetric assay (SRB), K-562; type: cell-based; details: for GI50: read-out: GI50 K-562
Outline: (§1)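 Human cancer cells (5×10^3/well) attached 18 h in RPMI 1640 10% FBS, then exposed 48 h at 37°C to compounds from 10 to 10^−8 μg/ml in DMSO/EtOH/PBS. TCA-fixed, SRB-stained, OD read at 490 nm; GI, TGI and LC derived from triplicate wells.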

A-549 = assay: Inhibition of cells growth by colorimetric assay (SRB), A-549; type: cell-based; details: for GI50: read-out: GI50 A-549
Outline: as §1

SK-MEL-28 = assay: Inhibition of cells growth by colorimetric assay (SRB), SK-MEL-28; type: cell-based; details: for GI50: read-out: GI50 MEL-28
Outline: as §1

HT-29 = assay: Inhibition of cells growth by colorimetric assay (SRB), HT-29; type: cell-based; details: for GI50: read-out: GI50 HT-29
Outline: as §1

LoVo = assay: Inhibition of cells growth by colorimetric assay (SRB), LoVo; type: cell-based; details: for GI50: read-out: GI50 LOVO
Outline: as §1

LoVo-Dox = assay: Inhibition of cells growth by colorimetric assay (SRB), LoVo-Dox; type: cell-based; details: for GI50: read-out: GI50 LOVO-DOX
Outline: as §1

DU-145 = assay: Inhibition of cells growth by colorimetric assay (SRB), DU-145; type: cell-based; details: for GI50: read-out: GI50 DU-145
Outline: as §1

LNCaP = assay: Inhibition of cells growth by colorimetric assay (SRB), LNCaP; type: cell-based; details: SRB, 48 hours exposure
Outline: as §1

SK-BR-3 = assay: Inhibition of cells growth by colorimetric assay (SRB), SK-BR-3; type: cell-based; details: for GI50: read-out: GI50 SK-BR3
Outline: as §1

IGROV-1 = assay: Inhibition of cells growth by colorimetric assay (SRB), IGROV-1; type: cell-based; details: for GI50: read-out: GI50 IGROV
Outline: as §1

IGROV-ET = assay: Inhibition of cells growth by colorimetric assay (SRB), IGROV-ET; type: cell-based; details: for GI50: read-out: GI50 IGROV-ET
Outline: as §1

SK-OV-3 = assay: Inhibition of cells growth by colorimetric assay (SRB), SK-OV-3; type: cell-based; details: for GI50: read-out: GI50 SK-OV3
Outline: as §1

PANC-1 = assay: Inhibition of cells growth by colorimetric assay (SRB), PANC-1; type: cell-based; details: for GI50: read-out: GI50 PANC-1
Outline: as §1

HMEC1 = assay: Inhibition of cells growth by colorimetric assay (SRB), HMEC1; type: cell-based; details: for GI50: read-out: GI50 HMEC-1
Outline: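 Cells in RPMI 1640 with 10% FBS were seeded at 5×10^3 per well, allowed 18 h to attach, then exposed to compound (10 to 10^−8 μg/ml, in DMSO/EtOH/PBS 0.5:0.5:99) for 48 h. After TCA fixation and SRB staining, bound dye was solubilized in Tris and OD read at 490 nm; GI, TGI and LC derived from triplicates.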

Liver = assay: In vitro toxicity, Liver
Text: (§2) Toxicity was asssessed by the methods reported in Toxicology in Vitro, 15 (2001) 571-577, J. Luber Narod et al.: “Evaluation of the use of in vitro methodolodies as tools for screening new compounds for potential in vivo toxicity”.

Heart = assay: In vitro toxicity, Heart
Text: as §2

Myelo = assay: In vitro toxicity, Myelo
Text: as §2

Kidney = assay: In vitro toxicity, Kidney
Text: as §2

Skeletal = assay: In vitro toxicity, Skeletal
Text: as §2

[1] = LOVO-DOX, SRB, 48 hours exposure
[2] = IGROV-ET, SRB, 48 hours exposure

SMILES: COc1cc2c(cc1OC(=O)C(F)(F)C(F)(F)C(F)(F)F)CCN[C@]21CS[C@@H]2c3c(OC(C)=O)c(C)c4c(c3[C@H](COC1=O)N1C2[C@H]2c3c(cc(C)c(OC)c3O)C[C@@H]([C@@H]1O)N2C)OCO4 (stereo partly shown) [Compound 74]
- GI50 (K-562; Homo sapiens, K562, 48 h): 0.0526 nM
- LC50 (50% cell killing) (K-562; Homo sapiens, K562, 48 h, read-out: LC50 K-562, K-562, SRB, 48 hours exposure): 0.661 nM
- TGI K-562 (K-562; K-562, SRB, 48 hours exposure): 2.10E-10
- TGI A-549 (A-549; A-549, SRB, 48 hours exposure): 9.04E-10
- GI50 (A-549; Homo sapiens, A549, 48 h): 0.399 nM
- LC50 (concentration for 50% cell killing) (A-549; Homo sapiens, A549, 48 h, read-out: LC50 A-549, A-549, SRB, 48 hours exposure): 6.38 nM
- GI50 (SK-MEL-28; Homo sapiens, SK-MEL-28, 48 h): 0.275 nM
- CC50 (SK-MEL-28; Homo sapiens, SK-MEL-28, 48 h, read-out: LC50 MEL-28, MEL-28, SRB, 48 hours exposure): 0.994 nM
- TGI MEL-28 (SK-MEL-28; MEL-28, SRB, 48 hours exposure): 5.22E-10
- TGI HT-29 (HT-29; HT-29, SRB, 48 hours exposure): 8.35E-10
- GI50 (HT-29; Homo sapiens, HT-29, 48 h): 0.354 nM
- LC50 (concentration for 50% cell killing) (HT-29; Homo sapiens, HT-29, 48 h, read-out: LC50 HT-29, HT-29, SRB, 48 hours exposure): 10400 nM
- GI50 (LoVo; Homo sapiens, LoVo, 48 h): 0.369 nM
- LC50 (concentration for 50% cell killing) (LoVo; Homo sapiens, LoVo, 48 h, read-out: LC50 LOVO, LOVO, SRB, 48 hours exposure): 11 nM
- TGI LOVO (LoVo; LOVO, SRB, 48 hours exposure): 1.16E-09
- GI50 (LoVo-Dox; Homo sapiens, 48 h): 6.31 nM
- CC50 (LoVo-Dox; Homo sapiens, 48 h, read-out: LC50 LOVO-DOX, LOVO-DOX, SRB, 48 hours exposure): 359 nM
- TGI LOVO-DOX (LoVo-Dox; [1]): 6.33E-08
- TGI DU-145 (DU-145; DU-145, SRB, 48 hours exposure): 7.61E-10
- GI50 (DU-145; Homo sapiens, DU-145, 48 h): 0.366 nM
- CC50 (DU-145; Homo sapiens, DU-145, 48 h, read-out: LC50 DU-145, DU-145, SRB, 48 hours exposure): 2790 nM
- GI50 (LNCaP; Homo sapiens, LNCaP, 48 h, read-out: GI50 LNCAP, LNCAP): 0.129 nM
- CC50 (LNCaP; Homo sapiens, LNCaP, 48 h, read-out: LC50 LNCAP, LNCAP): 0.564 nM
- TGI LNCAP (LNCaP; LNCAP): 2.69E-10
- GI50 (SK-BR-3; Homo sapiens, SK-BR-3, 48 h): 0.275 nM
- CC50 (SK-BR-3; Homo sapiens, SK-BR-3, 48 h, read-out: LC50 SK-BR3, SK-BR3, SRB, 48 hours exposure): 4.18 nM
- TGI SK-BR3 (SK-BR-3; SK-BR3, SRB, 48 hours exposure): 7.64E-10
- GI50 (IGROV-1; Homo sapiens, IGROV-1, 48 h): 0.237 nM
- CC50 (IGROV-1; Homo sapiens, IGROV-1, 48 h, read-out: LC50 IGROV, IGROV, SRB, 48 hours exposure): 0.911 nM
- TGI IGROV (IGROV-1; IGROV, SRB, 48 hours exposure): 4.65E-10
- GI50 (IGROV-ET; Homo sapiens, 48 h): 1.76 nM
- CC50 (IGROV-ET; Homo sapiens, 48 h, read-out: LC50 IGROV-ET, IGROV-ET, SRB, 48 hours exposure): 19.7 nM
- TGI IGROV-ET (IGROV-ET; [2]): 4.69E-09
- GI50 (SK-OV-3; Homo sapiens, SK-OV-3, 48 h): 0.248 nM
- LC50 (SK-OV-3; Homo sapiens, SK-OV-3, 48 h, read-out: LC50 SK-OV3, SK-OV3, SRB, 48 hours exposure): 1.11 nM
- TGI SK-OV3 (SK-OV-3; SK-OV3, SRB, 48 hours exposure): 4.76E-10
- GI50 (PANC-1; Homo sapiens, PANC-1, 48 h): 0.313 nM
- LC50 (concentration for 50% net cell kill) (PANC-1; Homo sapiens, PANC-1, 48 h, read-out: LC50 PANC-1, PANC-1, SRB, 48 hours exposure): 2.55 nM
- TGI PANC-1 (PANC-1; PANC-1, SRB, 48 hours exposure): 6.77E-10
- TGI HMEC-1 (HMEC1; HMEC-1, SRB, 48 hours exposure): 1.45E-08
- GI50 (HMEC1; Homo sapiens, HMEC-1, 48 h): 0.598 nM
- LC50 (HMEC1; Homo sapiens, HMEC-1, 48 h, read-out: LC50 HMEC-1, HMEC-1, SRB, 48 hours exposure): 4700 nM
- Toxicity Data Liver (Liver): 3.07E-08
- Toxicity Data Heart (Heart): 2.86E-08
- Toxicity Data Myelo (Myelo): 3.30E-08
- Toxicity Data Kidney (Kidney): 3.05E-08
- Toxicity Data Skeletal (Skeletal): 8.30E-10

SMILES: C=COC(=O)Oc1cc2c(cc1OC)[C@@]1(CS[C@@H]3c4c(OC(C)=O)c(C)c5c(c4[C@H](COC1=O)N1C3[C@H]3c4c(cc(C)c(OC)c4O)C[C@@H]([C@@H]1O)N3C)OCO5)NCC2 (stereo partly shown) [Compound 75]
- LC50 (50% lethal concentration) (K-562; K-562, SRB, 48 hours exposure): 4.16 nM
- TGI K-562 (K-562; K-562, SRB, 48 hours exposure): 7.42E-10
- GI50 (K-562; K-562, SRB, 48 hours exposure): 0.364 nM
- TGI A-549 (A-549; A-549, SRB, 48 hours exposure): 8.23E-09
- GI50 (A-549; A-549, SRB, 48 hours exposure): 4.26 nM
- LC50 (50% lethal concentration) (A-549; A-549, SRB, 48 hours exposure, read-out: LC50 A-549): 49 nM
- LC50 (concentration killing 50% of cells) (SK-MEL-28; MEL-28, SRB, 48 hours exposure): 11.7 nM
- TGI MEL-28 (SK-MEL-28; MEL-28, SRB, 48 hours exposure): 4.82E-09
- GI50 (SK-MEL-28; MEL-28, SRB, 48 hours exposure): 2 nM
- TGI HT-29 (HT-29; HT-29, SRB, 48 hours exposure): 1.18E-08
- GI50 (HT-29; HT-29, SRB, 48 hours exposure): 3.89 nM
- CC50 (HT-29; HT-29, SRB, 48 hours exposure, read-out: LC50 HT-29): 120 nM
- LC50 (concentration killing 50% of cells) (LoVo; LOVO, SRB, 48 hours exposure): 12 nM
- TGI LOVO (LoVo; LOVO, SRB, 48 hours exposure): 4.82E-09
- GI50 (LoVo; LOVO, SRB, 48 hours exposure): 2.25 nM
- TGI LOVO-DOX (LoVo-Dox; [1]): 1.23E-07
- GI50 (LoVo-Dox; [1]): 42.6 nM
- TGI DU-145 (DU-145; DU-145, SRB, 48 hours exposure): 9.47E-10
- GI50 (DU-145; DU-145, SRB, 48 hours exposure): 0.563 nM
- CC50 (DU-145; DU-145, SRB, 48 hours exposure, read-out: LC50 DU-145): 8330 nM
- TGI LNCAP (LNCaP; LNCAP): 8.31E-10
- GI50 (LNCaP; LNCAP, read-out: GI50 LNCAP): 0.579 nM
- CC50 (LNCaP; LNCAP, read-out: LC50 LNCAP): 1.19 nM
- TGI SK-BR3 (SK-BR-3; SK-BR3, SRB, 48 hours exposure): 3.21E-09
- GI50 (SK-BR-3; SK-BR3, SRB, 48 hours exposure): 1.2 nM
- CC50 (SK-BR-3; SK-BR3, SRB, 48 hours exposure, read-out: LC50 SK-BR3): 8.58 nM
- TGI IGROV (IGROV-1; IGROV, SRB, 48 hours exposure): 1.63E-09
- GI50 (IGROV-1; IGROV, SRB, 48 hours exposure): 0.52 nM
- CC50 (IGROV-1; IGROV, SRB, 48 hours exposure, read-out: LC50 IGROV): 10 nM
- TGI IGROV-ET (IGROV-ET; [2]): 6.58E-09
- GI50 (IGROV-ET; [2]): 3.38 nM
- CC50 (IGROV-ET; IGROV-ET, SRB, 48 hours exposure, read-out: LC50 IGROV-ET): 12 nM
- TGI SK-OV3 (SK-OV-3; SK-OV3, SRB, 48 hours exposure): 1.04E-08
- GI50 (SK-OV-3; SK-OV3, SRB, 48 hours exposure): 2.19 nM
- LC50 (concentration killing 50% of cells) (PANC-1; PANC-1, SRB, 48 hours exposure): 35.9 nM
- TGI PANC-1 (PANC-1; PANC-1, SRB, 48 hours exposure): 8.45E-09
- GI50 (PANC-1; PANC-1, SRB, 48 hours exposure): 3.04 nM
- TGI HMEC-1 (HMEC1; HMEC-1, SRB, 48 hours exposure): 5.77E-08
- GI50 (HMEC1; HMEC-1, SRB, 48 hours exposure): 6.97 nM
- Toxicity Data Liver (Liver): 4.11E-08
- Toxicity Data Heart (Heart): 8.17E-08
- Toxicity Data Myelo (Myelo): 5.85E-08
- Toxicity Data Kidney (Kidney): 3.86E-08
- Toxicity Data Skeletal (Skeletal): 4.06E-09
